Data published in US20170224758A1, “COMPOSITIONS AND METHODS OF TREATING MUSCULAR DYSTROPHY” (THE BROAD INSTITUTE, INC., priority 2014, published 2017).

Biological target: T1, Myogenin (Mus musculus, UniProt P12979)
T1 construct: electrophoretic mobility shift assays (EMSA) were carried out using muscle cell nuclear extracts; host or cells: C2C12 nuclear extract
T1 sequence (P12979 1-224): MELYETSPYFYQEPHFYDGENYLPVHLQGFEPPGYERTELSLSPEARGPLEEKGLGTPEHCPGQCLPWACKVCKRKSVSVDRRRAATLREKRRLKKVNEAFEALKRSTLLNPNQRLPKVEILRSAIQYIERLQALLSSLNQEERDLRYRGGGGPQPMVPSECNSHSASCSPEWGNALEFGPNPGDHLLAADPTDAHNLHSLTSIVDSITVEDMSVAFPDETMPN
Assay: Electrophoretic mobility shift assay (EMSA) with muscle cell nuclear extracts
Format: binding
Conditions: biotin labeled probe, C2C12 nuclear extract

Row | Sequence | binding of Myogenin protein (EMSA)
1 | CTCCTTTATTTCAGCGGAACTAAAGAAGTCTC (DNA, backbone and methylation of C not given here; duplex with complementary strand, biotin-labeled probe or unlabeled competitor) [G probe] | did not bind at all
2 | CTCCTTTATTTCAGCTGAACTAAAGAAGTCTC (DNA, backbone and methylation of C not given here; duplex with complementary strand, biotin-labeled probe or unlabeled competitor) [T probe, biotin labeled duplex EMSA probe with the escaper variant of the Jagged1 promoter] | robustly bound
